Active and inactive are the calls of the source. The calls are words filed in the database; no cut-off is given here.

In ChEMBL document CHEMBL1149856, “Insulinomimetic effect of kaempferol 3-neohesperidoside on the rat soleus muscle” (2008) one finds Activity data, which are given here for one compound.

The subject of assay [1] is Soleus muscle. The assay can be described thus: Inhibition of 14C-glucose uptake in Wistar rat soleus muscle at 1 nM in presence of LY-294002. In kind it is functional, tissue-based.
Assay [2] deals with Soleus muscle. Kind of assay: Inhibition of 14C-glucose uptake in Wistar rat soleus muscle at 1 nM in presence of RO318220. The class given is functional, tissue-based.
Assay [3] concerns Soleus muscle. The assay can be described thus: Stimulation of 14C-glucose uptake in Wistar rat soleus muscle at 1 nM in presence of PD-98059. In kind it is functional, tissue-based.
Assay [4] relates to Soleus muscle. The assay can be described thus: Stimulation of 14C-glucose uptake in Wistar rat soleus muscle at 1 nM in presence of cycloheximide. In kind it is functional, tissue-based.
Assay [5] relates to Rattus norvegicus. Kind of assay: Increase in glycogen level in diabetic Wistar rat soleus muscle at 100 mg/kg after 24 hrs. In kind it is functional.
The nature of assay [6]: Stimulation of 14C-glucose uptake in Wistar rat soleus muscle at 1 nM.
The nature of assay [7]: Stimulation of 14C-glucose uptake in Wistar rat soleus muscle at 100 nM.

As for `C[C@H]1O[C@H](O[C@H]2[C@H](Oc3c(-c4ccc(O)cc4)oc4cc(O)cc(O)c4c3=O)O[C@H](CO)[C@@H](O)[C@@H]2O)[C@@H](O)[C@@H](O)[C@@H]1O`, the result in assay [1], in assay [2], in assay [3] and in assay [4] was Active. Also, the Activity worked out at 380% in assay [5], 35% in assay [6] and 21% in assay [7].
